# Biological target: C-C chemokine receptor type 2 (Homo sapiens, UniProt P41597)
# Test: Displacement of [125I]-MIP-1alpha 125I]-MCP1 from CCR2 expressed in CHO ducX#98 cells by scintillation proximity assay
# Type: cell-based
# Sequence of C-C chemokine receptor type 2 (P41597 whole entry): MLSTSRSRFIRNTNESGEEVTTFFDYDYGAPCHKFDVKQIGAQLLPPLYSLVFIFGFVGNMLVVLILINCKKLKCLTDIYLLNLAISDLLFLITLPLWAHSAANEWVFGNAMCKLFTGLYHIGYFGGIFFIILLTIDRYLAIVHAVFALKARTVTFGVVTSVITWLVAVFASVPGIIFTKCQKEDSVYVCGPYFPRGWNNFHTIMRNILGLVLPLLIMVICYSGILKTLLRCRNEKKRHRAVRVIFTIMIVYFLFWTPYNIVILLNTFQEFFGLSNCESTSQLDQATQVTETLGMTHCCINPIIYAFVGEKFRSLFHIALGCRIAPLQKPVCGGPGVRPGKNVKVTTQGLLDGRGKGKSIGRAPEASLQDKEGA
row,SMILES,IC50
1,O=C(NCCCN1CCC(c2ccc(F)cc2)CC1)C1=Cc2cc(Br)ccc2OCC1,925 nM
2,O=C(NCCCCN1CCC(Cc2ccc(F)cc2)CC1)Nc1ccc(OC(F)(F)F)cc1,1880 nM

# Biological target: C-C chemokine receptor type 5 (Homo sapiens, UniProt P51681)
# Test: Displacement of [125I]-MIP-1- alpha from CCR5 expressed in CHO K1 cells by scintillation proximity assay
# Type: cell-based
# Sequence of C-C chemokine receptor type 5 (P51681 whole entry): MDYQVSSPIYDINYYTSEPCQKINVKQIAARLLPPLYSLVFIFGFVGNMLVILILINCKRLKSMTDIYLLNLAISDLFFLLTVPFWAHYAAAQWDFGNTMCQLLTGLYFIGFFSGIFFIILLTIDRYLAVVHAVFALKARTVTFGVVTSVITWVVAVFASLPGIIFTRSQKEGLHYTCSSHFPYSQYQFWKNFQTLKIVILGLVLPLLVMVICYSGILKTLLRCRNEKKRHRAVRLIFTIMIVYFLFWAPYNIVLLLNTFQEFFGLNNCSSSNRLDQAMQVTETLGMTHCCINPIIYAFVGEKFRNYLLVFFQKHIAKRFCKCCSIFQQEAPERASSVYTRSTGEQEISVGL
row,SMILES,IC50
1,N#Cc1cccc(C(=O)NCCCN2CCC(COCc3ccc(F)cc3)CC2)c1,1000 nM
2,COc1ccc(OC)c(S(=O)(=O)N2CCC(CN3CCC(Cc4ccc(F)cc4)CC3)CC2)c1,2850 nM
3,COc1ccc(C)cc1S(=O)(=O)N1CCC(CN2CCC(c3ccc(F)cc3)CC2)CC1,1300 nM

# Biological target: T1, C-C chemokine receptor type 1 (Homo sapiens, UniProt P32246)
# T1 sequence (P32246 whole entry): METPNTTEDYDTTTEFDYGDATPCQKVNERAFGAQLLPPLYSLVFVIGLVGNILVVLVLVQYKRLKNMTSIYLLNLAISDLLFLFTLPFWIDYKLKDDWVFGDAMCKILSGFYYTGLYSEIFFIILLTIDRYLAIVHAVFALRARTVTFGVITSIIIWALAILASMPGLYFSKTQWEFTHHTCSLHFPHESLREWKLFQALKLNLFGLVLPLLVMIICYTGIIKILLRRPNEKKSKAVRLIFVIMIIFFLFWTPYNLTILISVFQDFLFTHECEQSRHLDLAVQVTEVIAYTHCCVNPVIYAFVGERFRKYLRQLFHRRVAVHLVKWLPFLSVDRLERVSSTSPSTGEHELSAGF
# Test: Displacement of [125I]-MIP-1alpha 125I]-MCP1 from CCR1 expressed in CHO-K1 cells by scintillation proximity assay
# Type: cell-based
row,SMILES,IC50
1,Cc1noc(C)c1S(=O)(=O)NCCCN1CCC(O)(c2ccc(Cl)cc2)CC1,261 nM
2,O=C(NCCCCN1CCC(Oc2ccc(F)cc2)C1)NCc1ccc(Br)cc1 (configuration not stated),387 nM

# Biological target: T2, C-C chemokine receptor type 3 (Homo sapiens, UniProt P51677)
# T2 sequence (P51677 whole entry): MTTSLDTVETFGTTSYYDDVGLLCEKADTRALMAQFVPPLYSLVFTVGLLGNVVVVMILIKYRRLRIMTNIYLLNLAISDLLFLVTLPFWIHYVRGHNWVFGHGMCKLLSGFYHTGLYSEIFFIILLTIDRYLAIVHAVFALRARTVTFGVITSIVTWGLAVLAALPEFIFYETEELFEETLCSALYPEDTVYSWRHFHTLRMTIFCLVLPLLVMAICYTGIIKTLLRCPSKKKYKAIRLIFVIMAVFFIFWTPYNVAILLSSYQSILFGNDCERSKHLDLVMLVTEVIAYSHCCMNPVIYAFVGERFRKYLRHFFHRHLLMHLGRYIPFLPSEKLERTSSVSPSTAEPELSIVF
# Test: Displacement of [125I]-eotaxin from CCR3 expressed in RBL-2H3 cells by scintillation proximity assay
# Type: cell-based
row,SMILES,IC50
1,O=C(NCCCN1CCC(c2ccc(F)cc2)CC1)C1=Cc2cc(Br)ccc2OCC1,1000 nM
2,COc1ccc(OC)c(S(=O)(=O)N2CCC(CN3CCN(Cc4ccc(F)cc4)CC3)CC2)c1,65 nM
3,COc1ccc(Cl)cc1NC(=O)NCCCCN(C)Cc1ccc(F)cc1,82 nM
4,O=C(NCCCCN1CCC(Oc2ccc(F)cc2)C1)Nc1ccc(F)c(F)c1 (configuration not stated),76 nM
5,COc1ccc(OC)c(S(=O)(=O)N2CCC(CN3CCC(Cc4ccc(F)cc4)CC3)CC2)c1,1190 nM

# Source: ChEMBL document CHEMBL1909560, “Design and synthesis of a library of chemokine antagonists” (Bioorg Med Chem Lett, 2011)
